In ChEMBL document CHEMBL1782000, “Thiazole-based chalcones as potent antimicrobial agents. Synthesis and biological evaluation” (2011):
≈ marks a conversion by molar mass, not a printed value.

Assays:
Staphylococcus aureus [1] = assay: Antibacterial activity against Staphylococcus aureus ATCC 6538 after 24 hrs by microdilution method; assay type: functional; conditions: ATCC 6538, 24 h
Bacillus cereus [2] = assay: Antibacterial activity against Bacillus cereus clinical isolate after 24 hrs by microdilution method; assay type: functional
Micrococcus flavus [3] = assay: Antibacterial activity against Micrococcus flavus ATCC 10240 after 24 hrs by microdilution method; assay type: functional; conditions: ATCC 10240, 24 h
Listeria monocytogenes [4] = assay: Antibacterial activity against Listeria monocytogenes NCTC 7973 after 24 hrs by microdilution method; assay type: functional; conditions: NCTC 7973, 24 h
Pseudomonas aeruginosa [5] = assay: Antibacterial activity against Pseudomonas aeruginosa ATCC 27853 after 24 hrs by microdilution method; assay type: functional; conditions: ATCC 27853, 24 h
Salmonella typhimurium [6] = assay: Antibacterial activity against Salmonella Typhimurium ATCC 13311 after 24 hrs by microdilution method; assay type: functional, Salmonella enterica subsp. enterica serovar Typhimurium; conditions: Salmonella enterica, ATCC 13311, 24 h
Escherichia coli [7] = assay: Antibacterial activity against Escherichia coli ATCC 35210 after 24 hrs by microdilution method; assay type: functional; conditions: ATCC 35210, 24 h
Enterococcus faecalis [8] = assay: Antibacterial activity against Enterococcus faecalis isolate obtained from human after 24 hrs by microdilution method; assay type: functional
Staphylococcus aureus [9] = assay: Bactericidal activity against Staphylococcus aureus ATCC 6538 after 24 hrs; assay type: functional; conditions: ATCC 6538, 24 h
Bacillus cereus [10] = assay: Bactericidal activity against Bacillus cereus clinical isolate after 24 hrs; assay type: functional
Micrococcus flavus [11] = assay: Bactericidal activity against Micrococcus flavus ATCC 10240 after 24 hrs; assay type: functional; conditions: ATCC 10240, 24 h
Listeria monocytogenes [12] = assay: Bactericidal activity against Listeria monocytogenes NCTC 7973 after 24 hrs; assay type: functional; conditions: NCTC 7973, 24 h
Pseudomonas aeruginosa [13] = assay: Bactericidal activity against Pseudomonas aeruginosa ATCC 27853 after 24 hrs; assay type: functional; conditions: ATCC 27853, 24 h
Salmonella typhimurium [14] = assay: Bactericidal activity against Salmonella Typhimurium ATCC 13311 after 24 hrs; assay type: functional, Salmonella enterica subsp. enterica serovar Typhimurium; conditions: Salmonella enterica, ATCC 13311, 24 h
Escherichia coli [15] = assay: Bactericidal activity against Escherichia coli ATCC 35210 after 24 hrs; assay type: functional; conditions: ATCC 35210, 24 h
Enterococcus faecalis [16] = assay: Bactericidal activity against Enterococcus faecalis isolate obtained from human after 24 hrs; assay type: functional
Aspergillus ochraceus [17] = assay: Antifungal activity against Aspergillus ochraceus ATCC 12066 after 72 hrs by serial dilution method; assay type: functional; conditions: ATCC 12066, 72 h
Aspergillus versicolor [18] = assay: Antifungal activity against Aspergillus versicolor ATCC 11730 after 72 hrs by serial dilution method; assay type: functional; conditions: ATCC 11730, 72 h
Aspergillus niger [19] = assay: Antifungal activity against Aspergillus niger ATCC 6275 after 72 hrs by serial dilution method; assay type: functional; conditions: ATCC 6275, 72 h
Aspergillus fumigatus [20] = assay: Antifungal activity against Aspergillus fumigatus plant isolate after 72 hrs by serial dilution method; assay type: functional
Trichoderma viride [21] = assay: Antifungal activity against Trichoderma viride IAM 5061 after 72 hrs by serial dilution method; assay type: functional; conditions: IAM 5061, 72 h
Penicillium ochrochloron [22] = assay: Antifungal activity against Penicillium ochrochloron ATCC 9112 after 72 hrs by serial dilution method; assay type: functional; conditions: ATCC 9112, 72 h
Talaromyces funiculosus [23] = assay: Antifungal activity against Penicillium funiculosum ATCC 36839 after 72 hrs by serial dilution method; assay type: functional; conditions: ATCC 36839, 72 h
[24] = Antifungal activity against Fusarium sporotrichioides IMT 496 after 72 hrs by serial dilution method; assay type: functional
Aspergillus ochraceus [25] = assay: Fungicidal activity against Aspergillus ochraceus ATCC 12066 after 72 hrs; assay type: functional; conditions: ATCC 12066, 72 h
Aspergillus versicolor [26] = assay: Fungicidal activity against Aspergillus versicolor ATCC 11730 after 72 hrs; assay type: functional; conditions: ATCC 11730, 72 h
Aspergillus niger [27] = assay: Fungicidal activity against Aspergillus niger ATCC 6275 after 72 hrs; assay type: functional; conditions: ATCC 6275, 72 h
Aspergillus fumigatus [28] = assay: Fungicidal activity against Aspergillus fumigatus plant isolate after 72 hrs; assay type: functional
Trichoderma viride [29] = assay: Fungicidal activity against Trichoderma viride IAM 5061 after 72 hrs; assay type: functional; conditions: IAM 5061, 72 h
Penicillium ochrochloron [30] = assay: Fungicidal activity against Penicillium ochrochloron ATCC 9112 after 72 hrs; assay type: functional; conditions: ATCC 9112, 72 h
Talaromyces funiculosus [31] = assay: Fungicidal activity against Penicillium funiculosum ATCC 36839 after 72 hrs; assay type: functional; conditions: ATCC 36839, 72 h
[32] = test system: Fusarium sporotrichioides; assay: Fungicidal activity against Fusarium sporotrichioides IMT 496 after 72 hrs; assay type: functional; conditions: IMT 496, 72 h

Row | SMILES | MIC (Staphylococcus aureus [1]) [µM] | MIC (Bacillus cereus [2]) [µM] | MIC (Micrococcus flavus [3]) [µM] | MIC (Listeria monocytogenes [4]) [µM] | MIC (Pseudomonas aeruginosa [5]) [µM] | MIC (Salmonella typhimurium [6]) [µM] | MIC (Escherichia coli [7]) [µM] | MIC (Enterococcus faecalis [8]) [µM] | MBC (Staphylococcus aureus [9]) [µM] | MBC (Bacillus cereus [10]) [µM] | MBC (Micrococcus flavus [11]) [µM] | MBC (Listeria monocytogenes [12]) [µM] | MBC (Pseudomonas aeruginosa [13]) [µM] | MBC (Salmonella typhimurium [14]) [µM] | MBC (Escherichia coli [15]) [µM] | MBC (Enterococcus faecalis [16]) [µM] | MIC (Aspergillus ochraceus [17]) [µM] | MIC (Aspergillus versicolor [18]) [µM] | MIC (Aspergillus niger [19]) [µM] | MIC (Aspergillus fumigatus [20]) [µM] | further results
1 | CNc1nc(C)c(C(=O)/C=C/c2cccc([N+](=O)[O-])c2)s1 | 330 (≈ 100 µg/mL) | 330 (≈ 100 µg/mL) | 330 (≈ 100 µg/mL) | 330 (≈ 100 µg/mL) | 280 (≈ 85.1 µg/mL) | 280 (≈ 85.1 µg/mL) | 248 (≈ 75.1 µg/mL) | 330 (≈ 100 µg/mL) | 495 (≈ 150 µg/mL) | 330 (≈ 100 µg/mL) | 495 (≈ 150 µg/mL) | 495 (≈ 150 µg/mL) | 330 (≈ 100 µg/mL) | 330 (≈ 100 µg/mL) | 330 (≈ 100 µg/mL) | 330 (≈ 100 µg/mL) | 330 (≈ 100 µg/mL) | 330 (≈ 100 µg/mL) | 330 (≈ 100 µg/mL) | 330 (≈ 100 µg/mL) | MIC (Trichoderma viride [21]): 165 µM (≈ 50.1 µg/mL); MIC (Penicillium ochrochloron [22]): 330 µM (≈ 100 µg/mL); MIC (Talaromyces funiculosus [23]): 330 µM (≈ 100 µg/mL); MIC (10'-2 umol/ml) [24]: 33; MFC (Aspergillus ochraceus [25]): 496 µM (≈ 150 µg/mL); MFC (Aspergillus versicolor [26]): 496 µM (≈ 150 µg/mL); MFC (Aspergillus niger [27]): 660 µM (≈ 200 µg/mL); MFC (Aspergillus fumigatus [28]): 496 µM (≈ 150 µg/mL); MFC (Trichoderma viride [29]): 330 µM (≈ 100 µg/mL); MFC (Penicillium ochrochloron [30]): 496 µM (≈ 150 µg/mL); MFC (Talaromyces funiculosus [31]): 496 µM (≈ 150 µg/mL); MFC [32]: 660 µM (≈ 200 µg/mL)
2 | CNc1nc(C)c(C(=O)/C=C/c2cccc(Cl)c2)s1 | 342 (≈ 100 µg/mL) | 342 (≈ 100 µg/mL) | 256 (≈ 75.1 µg/mL) | 342 (≈ 100 µg/mL) | 342 (≈ 100 µg/mL) | 290 (≈ 85.1 µg/mL) | 290 (≈ 85.1 µg/mL) | 85.4 (≈ 25 µg/mL) | 513 (≈ 150 µg/mL) | 513 (≈ 150 µg/mL) | 342 (≈ 100 µg/mL) | 513 (≈ 150 µg/mL) | 513 (≈ 150 µg/mL) | 342 (≈ 100 µg/mL) | 342 (≈ 100 µg/mL) | 342 (≈ 100 µg/mL) | 340 (≈ 99.5 µg/mL) | 340 (≈ 99.5 µg/mL) | 340 (≈ 99.5 µg/mL) | 340 (≈ 99.5 µg/mL) | MIC (Trichoderma viride [21]): 170 µM (≈ 49.8 µg/mL); MIC (Penicillium ochrochloron [22]): 340 µM (≈ 99.5 µg/mL); MIC (Talaromyces funiculosus [23]): 340 µM (≈ 99.5 µg/mL); MIC (10'-2 umol/ml) [24]: 17; MFC (Aspergillus ochraceus [25]): 513 µM (≈ 150 µg/mL); MFC (Aspergillus versicolor [26]): 513 µM (≈ 150 µg/mL); MFC (Aspergillus niger [27]): 854 µM (≈ 250 µg/mL); MFC (Aspergillus fumigatus [28]): 513 µM (≈ 150 µg/mL); MFC (Trichoderma viride [29]): 340 µM (≈ 99.5 µg/mL); MFC (Penicillium ochrochloron [30]): 513 µM (≈ 150 µg/mL); MFC (Talaromyces funiculosus [31]): 513 µM (≈ 150 µg/mL); MFC [32]: 683 µM (≈ 200 µg/mL)
3 | CN[C@@H]1[C@H](O[C@H]2[C@H](O[C@H]3[C@H](O)[C@@H](O)[C@H](N=C(N)N)[C@@H](O)[C@@H]3N=C(N)N)O[C@@H](C)[C@]2(O)C=O)O[C@@H](CO)[C@H](O)[C@H]1O [STREPTOMYCIN] | 17.1 (≈ 9.95 µg/mL) | 2 (≈ 1.16 µg/mL) | 2 (≈ 1.16 µg/mL) | 17.1 (≈ 9.95 µg/mL) | 2 (≈ 1.16 µg/mL) | 2 (≈ 1.16 µg/mL) | 8.6 (≈ 5 µg/mL) | 4.3 (≈ 2.5 µg/mL) | 42.9 (≈ 24.9 µg/mL) | 4.3 (≈ 2.5 µg/mL) | 4.3 (≈ 2.5 µg/mL) | 43 (≈ 25 µg/mL) | 4.3 (≈ 2.5 µg/mL) | 4.3 (≈ 2.5 µg/mL) | 17.1 (≈ 9.95 µg/mL) | 8.6 (≈ 5 µg/mL) |  |  |  |  | 
4 | CNc1nc(C)c(C(=O)/C=C/c2c(Cl)cccc2Cl)s1 | 306 (≈ 100 µg/mL) | 260 (≈ 85 µg/mL) | 229 (≈ 75 µg/mL) | 306 (≈ 100 µg/mL) | 229 (≈ 75 µg/mL) | 306 (≈ 100 µg/mL) | 229 (≈ 75 µg/mL) | 153 (≈ 50 µg/mL) | 459 (≈ 150 µg/mL) | 306 (≈ 100 µg/mL) | 306 (≈ 100 µg/mL) | 459 (≈ 150 µg/mL) | 306 (≈ 100 µg/mL) | 306 (≈ 100 µg/mL) | 306 (≈ 100 µg/mL) | 306 (≈ 100 µg/mL) | 459 (≈ 150 µg/mL) | 306 (≈ 100 µg/mL) | 306 (≈ 100 µg/mL) | 306 (≈ 100 µg/mL) | MIC (Trichoderma viride [21]): 153 µM (≈ 50 µg/mL); MIC (Penicillium ochrochloron [22]): 153 µM (≈ 50 µg/mL); MIC (Talaromyces funiculosus [23]): 306 µM (≈ 100 µg/mL); MIC (10'-2 umol/ml) [24]: 15.3; MFC (Aspergillus ochraceus [25]): 612 µM (≈ 200 µg/mL); MFC (Aspergillus versicolor [26]): 459 µM (≈ 150 µg/mL); MFC (Aspergillus niger [27]): 612 µM (≈ 200 µg/mL); MFC (Aspergillus fumigatus [28]): 306 µM (≈ 100 µg/mL); MFC (Trichoderma viride [29]): 306 µM (≈ 100 µg/mL); MFC (Penicillium ochrochloron [30]): 459 µM (≈ 150 µg/mL); MFC (Talaromyces funiculosus [31]): 459 µM (≈ 150 µg/mL); MFC [32]: 459 µM (≈ 150 µg/mL)
5 | CNc1nc(C)c(C(=O)/C=C/c2ccc(Cl)cc2Cl)s1 | 306 (≈ 100 µg/mL) | 229 (≈ 75 µg/mL) | 306 (≈ 100 µg/mL) | 306 (≈ 100 µg/mL) | 306 (≈ 100 µg/mL) | 229 (≈ 75 µg/mL) | 306 (≈ 100 µg/mL) | 306 (≈ 100 µg/mL) | 459 (≈ 150 µg/mL) | 306 (≈ 100 µg/mL) | 459 (≈ 150 µg/mL) | 459 (≈ 150 µg/mL) | 306 (≈ 100 µg/mL) | 306 (≈ 100 µg/mL) | 459 (≈ 150 µg/mL) | 459 (≈ 150 µg/mL) | 306 (≈ 100 µg/mL) | 153 (≈ 50 µg/mL) | 459 (≈ 150 µg/mL) | 153 (≈ 50 µg/mL) | MIC (Trichoderma viride [21]): 153 µM (≈ 50 µg/mL); MIC (Penicillium ochrochloron [22]): 306 µM (≈ 100 µg/mL); MIC (Talaromyces funiculosus [23]): 153 µM (≈ 50 µg/mL); MIC (10'-2 umol/ml) [24]: 15.3; MFC (Aspergillus ochraceus [25]): 612 µM (≈ 200 µg/mL); MFC (Aspergillus versicolor [26]): 612 µM (≈ 200 µg/mL); MFC (Aspergillus niger [27]): 612 µM (≈ 200 µg/mL); MFC (Aspergillus fumigatus [28]): 612 µM (≈ 200 µg/mL); MFC (Trichoderma viride [29]): 306 µM (≈ 100 µg/mL); MFC (Penicillium ochrochloron [30]): 612 µM (≈ 200 µg/mL); MFC (Talaromyces funiculosus [31]): 306 µM (≈ 100 µg/mL); MFC [32]: 306 µM (≈ 100 µg/mL)
